This is an account of results in patent US12297235B2, “Synthetic peptide compounds and methods of use” (REALTA HOLDINGS, LLC, priority 2015, dated 2025).

This data set can be described thus: Solubility in water. In kind it is physicochemical. As to conditions: Table 7, PEGylated and Sar/Ala substitution peptides.

Square brackets hold non-standard residues; d marks the D form. Peptide text beside a SMILES is read from it. PEG24 = NCCOCCOCCOCCOCCOCCOCCOCCOCCOCCOCCOCCOCCOCCOCCOCCOCCOCCOCCOCCOCCOCCOCCOCCOCCC(=O)O; Sar = CNCC(=O)O

With `CC[C@H](C)[C@H](N)C(=O)N[C@@H](C)C(=O)N[C@@H](CC(C)C)C(=O)N[C@H](C(=O)N[C@@H](CC(C)C)C(=O)N[C@@H](C)C(=O)N1CCC[C@H]1C(=O)N[C@H](C(=O)N[C@@H](CS)C(=O)N[C@@H](CS)C(=O)N[C@@H](CCC(N)=O)C(=O)N[C@@H](C)C(=O)N[C@@H](CCCNC(=N)N)C(=O)N[C@@H](C)C(=O)N[C@@H](C)C(=O)NCCOCCOCCOCCOCCOCCOCCOCCOCCOCCOCCOCCOCCOCCOCCOCCOCCOCCOCCOCCOCCOCCOCCOCCOCCC(=O)O)[C@@H](C)CC)[C@@H](C)CC` [E6AE12A-dPEG24] (H-IALILAPICCQARAA[PEG24]-OH), the Solubility in water result is “Yes”.

For `CC[C@H](C)[C@H](N)C(=O)N[C@@H](C)C(=O)N[C@@H](CC(C)C)C(=O)N[C@H](C(=O)N[C@@H](CC(C)C)C(=O)N[C@@H](CCC(=O)O)C(=O)N1CCC[C@H]1C(=O)N[C@H](C(=O)N[C@@H](CS)C(=O)N[C@@H](CS)C(=O)N[C@@H](CCC(N)=O)C(=O)N[C@@H](CCC(=O)O)C(=O)N[C@@H](CCCNC(=N)N)C(=O)N(C)CC(=O)N[C@@H](C)C(=O)NCCOCCOCCOCCOCCOCCOCCOCCOCCOCCOCCOCCOCCOCCOCCOCCOCCOCCOCCOCCOCCOCCOCCOCCOCCC(=O)O)[C@@H](C)CC)[C@@H](C)CC` [PA-A14Sar-dPEG24], the Solubility in water result is recorded as “Yes”.

For the molecule `CC[C@H](C)[C@H](N)C(=O)N[C@@H](C)C(=O)N[C@@H](CC(C)C)C(=O)N[C@H](C(=O)N[C@@H](CC(C)C)C(=O)N[C@@H](CCC(=O)O)C(=O)N1CCC[C@H]1C(=O)N[C@H](C(=O)N(C)CC(=O)N[C@@H](C)C(=O)N[C@@H](CCC(N)=O)C(=O)N[C@@H](CCC(=O)O)C(=O)N[C@@H](CCCNC(=N)N)C(=O)N[C@@H](C)C(=O)N[C@@H](C)C(=O)O)[C@@H](C)CC)[C@@H](C)CC` [PA-C9SarC10A] (H-IALILEPI[Sar]AQERAA-OH), the Solubility in water entry is reported as “Yes”.

Take `CC[C@H](C)[C@H](N)C(=O)N[C@@H](C)C(=O)N[C@@H](CC(C)C)C(=O)N[C@H](C(=O)N[C@@H](CC(C)C)C(=O)N[C@@H](CCC(=O)O)C(=O)N1CCC[C@H]1C(=O)N[C@H](C(=O)N(C)CC(=O)N[C@@H](CCC(N)=O)C(=O)N[C@@H](CCC(=O)O)C(=O)N[C@@H](CCCNC(=N)N)C(=O)N[C@@H](C)C(=O)N[C@@H](C)C(=O)O)[C@@H](C)CC)[C@@H](C)CC` [PA-C9SarD10] (H-IALILEPI[Sar]QERAA-OH): the Solubility in water entry is “Yes”.

For the molecule `CC[C@H](C)[C@H](N)C(=O)N[C@@H](C)C(=O)N[C@@H](CC(C)C)C(=O)N[C@H](C(=O)N[C@@H](CC(C)C)C(=O)N(C)CC(=O)N1CCC[C@H]1C(=O)N[C@H](C(=O)N[C@@H](CS)C(=O)N[C@@H](CS)C(=O)N[C@@H](CCC(N)=O)C(=O)N[C@@H](CCC(=O)O)C(=O)N[C@@H](CCCNC(=N)N)C(=O)N[C@@H](C)C(=O)N[C@@H](C)C(=O)NCCOCCOCCOCCOCCOCCOCCOCCOCCOCCOCCOCCOCCOCCOCCOCCOCCOCCOCCOCCOCCOCCOCCOCCOCCC(=O)O)[C@@H](C)CC)[C@@H](C)CC` [PA-E6Sar-dPEG24], the Solubility in water result is given as “Yes”.

For `CC[C@H](C)[C@H](N)C(=O)N[C@@H](C)C(=O)N[C@@H](CC(C)C)C(=O)N[C@H](C(=O)N[C@@H](CC(C)C)C(=O)N[C@@H](CCC(=O)O)C(=O)N(C)CC(=O)N[C@H](C(=O)N(C)CC(=O)N[C@@H](CS)C(=O)N[C@@H](CCC(N)=O)C(=O)N[C@@H](CCC(=O)O)C(=O)N[C@@H](CCCNC(=N)N)C(=O)N[C@@H](C)C(=O)N[C@@H](C)C(=O)O)[C@@H](C)CC)[C@@H](C)CC` [PA-P7SarC9Sar, IALILE(Sar)I(Sar)CQERAA] (H-IALILE[Sar]I[Sar]CQERAA-OH), the Solubility in water result is “Yes”.

For the molecule `CC[C@H](C)[C@H](N)C(=O)N[C@@H](C)C(=O)N[C@@H](CC(C)C)C(=O)N[C@H](C(=O)N[C@@H](CC(C)C)C(=O)N[C@@H](CCC(=O)O)C(=O)N1CCC[C@H]1C(=O)N[C@H](C(=O)N[C@@H](CS)C(=O)N[C@@H](CS)C(=O)N(C)CC(=O)N[C@@H](CCC(=O)O)C(=O)N[C@@H](CCCNC(=N)N)C(=O)N[C@@H](C)C(=O)N[C@@H](C)C(=O)NCCOCCOCCOCCOCCOCCOCCOCCOCCOCCOCCOCCOCCOCCOCCOCCOCCOCCOCCOCCOCCOCCOCCOCCOCCC(=O)O)[C@@H](C)CC)[C@@H](C)CC` [PA-Q11Sar-dPEG24], the Solubility in water entry is reported as “Yes”.

Consider `CC[C@H](C)[C@H](N)C(=O)N[C@@H](C)C(=O)N[C@@H](CC(C)C)C(=O)N[C@H](C(=O)N[C@@H](CC(C)C)C(=O)N[C@@H](CCC(=O)O)C(=O)N1CCC[C@H]1C(=O)N[C@H](C(=O)N[C@@H](CS)C(=O)N[C@@H](CS)C(=O)N[C@@H](CCC(N)=O)C(=O)N[C@@H](CCC(=O)O)C(=O)N(C)CC(=O)N[C@@H](C)C(=O)N[C@@H](C)C(=O)NCCOCCOCCOCCOCCOCCOCCOCCOCCOCCOCCOCCOCCOCCOCCOCCOCCOCCOCCOCCOCCOCCOCCOCCOCCC(=O)O)[C@@H](C)CC)[C@@H](C)CC` [PA-R13Sar-dPEG24], for which the Solubility in water entry was “Yes”.

On to `CC[C@H](C)[C@H](N)C(=O)N[C@@H](C)C(=O)N[C@@H](CC(C)C)C(=O)N[C@H](C(=O)N[C@@H](CC(C)C)C(=O)N[C@@H](CCC(=O)O)C(=O)N1CCC[C@H]1C(=O)N[C@H](C(=O)N(C)CC(=O)N[C@@H](CS)C(=O)N[C@@H](CCC(N)=O)C(=O)N[C@@H](CCC(=O)O)C(=O)N[C@@H](CCCNC(=N)N)C(=O)N(C)CC(=O)N[C@@H](C)C(=O)O)[C@@H](C)CC)[C@@H](C)CC` [Peptide A14SarC9Sar] (H-IALILEPI[Sar]CQER[Sar]A-OH), for which the Solubility in water result is on record as “No”.

Regarding `CC[C@H](C)[C@H](N)C(=O)N[C@@H](C)C(=O)N[C@@H](CC(C)C)C(=O)N[C@H](C(=O)N[C@@H](CC(C)C)C(=O)N[C@@H](CCC(=O)O)C(=O)N(C)CC(=O)N[C@H](C(=O)N[C@@H](CS)C(=O)N[C@@H](CS)C(=O)N[C@@H](CCC(N)=O)C(=O)N[C@@H](CCC(=O)O)C(=O)N[C@@H](CCCNC(=N)N)C(=O)N(C)CC(=O)N[C@@H](C)C(=O)O)[C@@H](C)CC)[C@@H](C)CC` [Peptide A14SarP7Sar, IALILE(Sar)ICCQER(Sar)A] (H-IALILE[Sar]ICCQER[Sar]A-OH; N-terminus and C-terminus assumed), the Solubility in water entry was “Yes”.

For the molecule `CC[C@H](C)[C@H](N)C(=O)N[C@@H](C)C(=O)N[C@@H](CC(C)C)C(=O)N[C@H](C(=O)N[C@@H](CC(C)C)C(=O)N[C@@H](C)C(=O)N1CCC[C@H]1C(=O)N[C@H](C(=O)N(C)CC(=O)N[C@@H](CS)C(=O)N[C@@H](CCC(N)=O)C(=O)N[C@@H](C)C(=O)N[C@@H](CCCNC(=N)N)C(=O)N[C@@H](C)C(=O)N[C@@H](C)C(=O)O)[C@@H](C)CC)[C@@H](C)CC` [Peptide E6AE12AC9Sar] (H-IALILAPI[Sar]CQARAA-OH), the Solubility in water entry is on record as “No”.

In the case of `CC[C@H](C)[C@H](N)C(=O)N[C@@H](C)C(=O)N[C@@H](CC(C)C)C(=O)N[C@H](C(=O)N[C@@H](CC(C)C)C(=O)N[C@@H](C)C(=O)N(C)CC(=O)N[C@H](C(=O)N[C@@H](CS)C(=O)N[C@@H](CS)C(=O)N[C@@H](CCC(N)=O)C(=O)N[C@@H](C)C(=O)N[C@@H](CCCNC(=N)N)C(=O)N[C@@H](C)C(=O)N[C@@H](C)C(=O)O)[C@@H](C)CC)[C@@H](C)CC` [Peptide E6AE12AP7Sar] (H-IALILA[Sar]ICCQARAA-OH; N-terminus and C-terminus assumed), the Solubility in water entry is “Yes”.

For `CC[C@H](C)[C@H](N)C(=O)N[C@@H](C)C(=O)N[C@@H](CC(C)C)C(=O)N[C@H](C(=O)N[C@@H](CC(C)C)C(=O)N(C)CC(=O)N1CCC[C@H]1C(=O)N[C@H](C(=O)N(C)CC(=O)N[C@@H](CS)C(=O)N[C@@H](CCC(N)=O)C(=O)N[C@@H](CCC(=O)O)C(=O)N[C@@H](CCCNC(=N)N)C(=O)N[C@@H](C)C(=O)N[C@@H](C)C(=O)O)[C@@H](C)CC)[C@@H](C)CC` [Peptide E6SarC9Sar, IALIL(Sar)PI(Sar)CQERAA] (H-IALIL[Sar]PI[Sar]CQERAA-OH), the Solubility in water result is “Yes”.

Consider `CC[C@H](C)[C@H](N)C(=O)N[C@@H](C)C(=O)N[C@@H](CC(C)C)C(=O)N[C@H](C(=O)N[C@@H](CC(C)C)C(=O)N(C)CC(=O)N(C)CC(=O)N[C@H](C(=O)N[C@@H](CS)C(=O)N[C@@H](CS)C(=O)N[C@@H](CCC(N)=O)C(=O)N[C@@H](CCC(=O)O)C(=O)N[C@@H](CCCNC(=N)N)C(=O)N[C@@H](C)C(=O)N[C@@H](C)C(=O)O)[C@@H](C)CC)[C@@H](C)CC` [Peptide E6SarP7Sar] (H-IALIL[Sar][Sar]ICCQERAA-OH; N-terminus and C-terminus assumed), for which the Solubility in water result is “Yes”.

In the case of `CC[C@H](C)[C@H](N)C(=O)N[C@@H](C)C(=O)N[C@@H](CC(C)C)C(=O)N[C@H](C(=O)N[C@@H](CC(C)C)C(=O)N[C@@H](CCC(=O)O)C(=O)N1CCC[C@H]1C(=O)N[C@H](C(=O)N(C)CC(=O)N[C@@H](CS)C(=O)N(C)CC(=O)N[C@@H](CCC(=O)O)C(=O)N[C@@H](CCCNC(=N)N)C(=O)N[C@@H](C)C(=O)N[C@@H](C)C(=O)O)[C@@H](C)CC)[C@@H](C)CC` [Peptide Q11SarC9Sar] (H-IALILEPI[Sar]C[Sar]ERAA-OH), the Solubility in water result is “Yes”.

With `CC[C@H](C)[C@H](N)C(=O)N[C@@H](C)C(=O)N[C@@H](CC(C)C)C(=O)N[C@H](C(=O)N[C@@H](CC(C)C)C(=O)N[C@@H](CCC(=O)O)C(=O)N(C)CC(=O)N[C@H](C(=O)N[C@@H](CS)C(=O)N[C@@H](CS)C(=O)N(C)CC(=O)N[C@@H](CCC(=O)O)C(=O)N[C@@H](CCCNC(=N)N)C(=O)N[C@@H](C)C(=O)N[C@@H](C)C(=O)O)[C@@H](C)CC)[C@@H](C)CC` [Peptide Q11SarP7Sar, IALILE(Sar)ICC(Sar)ERAA] (H-IALILE[Sar]ICC[Sar]ERAA-OH; N-terminus and C-terminus assumed), the Solubility in water entry is on record as “Yes”.

Consider `CC[C@H](C)[C@H](N)C(=O)N[C@@H](C)C(=O)N[C@@H](CC(C)C)C(=O)N[C@H](C(=O)N[C@@H](CC(C)C)C(=O)N[C@@H](CCC(=O)O)C(=O)N1CCC[C@H]1C(=O)N[C@H](C(=O)N(C)CC(=O)N[C@@H](CS)C(=O)N[C@@H](CCC(N)=O)C(=O)N[C@@H](CCC(=O)O)C(=O)N(C)CC(=O)N[C@@H](C)C(=O)N[C@@H](C)C(=O)O)[C@@H](C)CC)[C@@H](C)CC` [Peptide R13SarC9Sar] (H-IALILEPI[Sar]CQE[Sar]AA-OH), for which the Solubility in water entry is recorded as “No”.
